Experimental findings from ChEMBL document CHEMBL4842316, “Structure-based bioisosterism design of thio-benzoxazepinones as novel necroptosis inhibitors” (Eur J Med Chem, 2021) are described below.

pEC50: −log10 of the molar value. The source made the active and inactive calls. The rule behind the calls is not given here.

Series [1] in a line: Cytotoxicity against human HT-29 cells assessed as reduction in cell viability measured after 8 to 10 hrs by celltiter-glo luminescent cell viability assay. The format is cell-based. The settings on record: time 8-10 hrs.
The subject of series [2] is HT-29. Put plainly: Anti-necroptotic activity in human HT-29 cells assessed as inhibition of hTNFalpha/Z-VAD-fmk (TSZ)-induced necroptosis by measuring increase in cell viability measured after 8 to 10 hrs by celltiter-glo luminescent cell viability assay. The format is functional, cell-based. (In general: In ATP-based viability assays light output follows the ATP content of the culture.)

The target of series [3] is T1, Mixed lineage kinase domain-like protein (Homo sapiens) (UniProt Q8NB16).
T1 sequence (whole entry): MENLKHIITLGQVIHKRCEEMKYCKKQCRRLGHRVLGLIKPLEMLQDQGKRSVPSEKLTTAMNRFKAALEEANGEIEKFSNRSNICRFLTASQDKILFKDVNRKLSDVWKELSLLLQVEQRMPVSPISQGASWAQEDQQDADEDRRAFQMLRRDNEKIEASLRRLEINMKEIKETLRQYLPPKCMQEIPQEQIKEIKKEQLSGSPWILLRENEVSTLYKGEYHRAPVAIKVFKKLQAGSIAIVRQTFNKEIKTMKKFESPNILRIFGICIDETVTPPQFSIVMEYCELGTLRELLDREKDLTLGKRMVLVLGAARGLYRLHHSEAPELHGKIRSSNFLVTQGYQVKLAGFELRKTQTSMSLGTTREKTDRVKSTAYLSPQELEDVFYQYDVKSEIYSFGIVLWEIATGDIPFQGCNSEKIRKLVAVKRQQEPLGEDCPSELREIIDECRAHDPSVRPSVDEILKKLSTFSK
In words: Inhibition of MLKL phosphorylation in Z-VAD-fmk (TSZ)-induced human HT-29 cells at 1 uM measured up to 4 hrs by immunoblotting analysis. In kind it is cell-based. The settings on record: time hrs <=4. A general note: Immunoblotting shows a protein as a band on a membrane.

The target of series [4] is T1, Mixed lineage kinase domain-like protein (Homo sapiens). Put plainly: Inhibition of MLKL phosphorylation in Z-VAD-fmk (TSZ)-induced human HT-29 cells measured at 4 hrs by immunoblotting analysis. The settings on record: dose 0.001-1 µM. The format is cell-based.
The target of series [5] is Receptor-interacting serine/threonine-protein kinase 3 (Homo sapiens) (UniProt Q9Y572). Put plainly: Inhibition of RIPK3 in Z-VAD-fmk (TSZ)-induced human HT-29 cells assessed as reduction in RIPK1-RIPK3 necrosome formation at 1 uM measured after 6 hrs by Western blot analysis. In kind it is cell-based.
For series [6], the target named is T2, Receptor-interacting serine/threonine-protein kinase 1 (Homo sapiens) (UniProt Q13546).
T2 sequence (whole entry): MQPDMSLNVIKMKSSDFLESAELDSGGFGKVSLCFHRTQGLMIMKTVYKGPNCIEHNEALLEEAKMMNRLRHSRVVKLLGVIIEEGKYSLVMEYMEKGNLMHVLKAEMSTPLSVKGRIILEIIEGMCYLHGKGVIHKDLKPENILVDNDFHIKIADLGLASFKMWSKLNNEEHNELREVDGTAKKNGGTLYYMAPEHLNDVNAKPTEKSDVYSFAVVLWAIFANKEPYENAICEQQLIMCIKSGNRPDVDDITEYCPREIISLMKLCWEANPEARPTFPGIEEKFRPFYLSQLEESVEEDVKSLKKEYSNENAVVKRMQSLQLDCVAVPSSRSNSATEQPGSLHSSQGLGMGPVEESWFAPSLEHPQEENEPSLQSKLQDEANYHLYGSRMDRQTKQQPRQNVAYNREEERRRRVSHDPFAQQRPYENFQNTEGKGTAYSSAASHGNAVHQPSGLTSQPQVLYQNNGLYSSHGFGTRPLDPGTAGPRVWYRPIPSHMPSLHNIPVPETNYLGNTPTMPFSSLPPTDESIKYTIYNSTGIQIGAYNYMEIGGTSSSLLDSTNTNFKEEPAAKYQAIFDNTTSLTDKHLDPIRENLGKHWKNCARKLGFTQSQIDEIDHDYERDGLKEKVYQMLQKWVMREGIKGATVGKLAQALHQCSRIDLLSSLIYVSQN
Put plainly: Inhibition of RIPK1 in Z-VAD-fmk (TSZ)-induced human HT-29 cells assessed as reduction in RIPK1-RIPK3 necrosome formation at 1 uM measured after 6 hrs by Western blot analysis. In kind it is cell-based.

For series [7], the target named is Receptor-interacting serine/threonine-protein kinase 3 (Homo sapiens) (UniProt Q9Y572). Put plainly: Inhibition of RIPK3 phosphorylation in Z-VAD-fmk (TSZ)-induced human HT-29 cells measured at 4 hrs by immunoblotting analysis. In kind it is cell-based. The settings on record: dose 0.001-1 µM.
Series [8] has as its system HT-29. Put plainly: Anti-necroptotic activity in human HT-29 cells assessed as inhibition of Z-VAD-fmk (TSZ)-induced necroptosis by measuring increase in cell viability measured after 8 to 10 hrs by celltiter-glo luminescent cell viability assay. The format is functional, cell-based. The settings on record: time 8-10 hrs.
Series [9] addresses T2, Receptor-interacting serine/threonine-protein kinase 1 (Homo sapiens). Put plainly: Inhibition of RIPK1 phosphorylation in Z-VAD-fmk (TSZ)-induced human HT-29 cells at 1 uM measured up to 4 hrs by immunoblotting analysis. The settings on record: time hrs <=4. The format is cell-based.
Series [10] shares this target. In words: Inhibition of RIPK1 phosphorylation in Z-VAD-fmk (TSZ)-induced human HT-29 cells measured at 4 hrs by immunoblotting analysis. In kind it is cell-based. The settings on record: dose 0.001-1 µM.
The target of series [11] is Receptor-interacting serine/threonine-protein kinase 3 (Homo sapiens) (UniProt Q9Y572). In words: Inhibition of RIPK3 phosphorylation in Z-VAD-fmk (TSZ)-induced human HT-29 cells at 1 uM measured up to 4 hrs by immunoblotting analysis. The settings on record: time hrs <=4. The format is cell-based.

The term CC50 denotes the concentration at which the toxic effect on the cells reaches its halfway point. As usually defined, the pEC50 is the EC50 on a negative log10 scale, so that one unit is a factor of ten.

Sequence of Receptor-interacting serine/threonine-protein kinase 3 (Homo sapiens) (Q9Y572 whole entry, looked up): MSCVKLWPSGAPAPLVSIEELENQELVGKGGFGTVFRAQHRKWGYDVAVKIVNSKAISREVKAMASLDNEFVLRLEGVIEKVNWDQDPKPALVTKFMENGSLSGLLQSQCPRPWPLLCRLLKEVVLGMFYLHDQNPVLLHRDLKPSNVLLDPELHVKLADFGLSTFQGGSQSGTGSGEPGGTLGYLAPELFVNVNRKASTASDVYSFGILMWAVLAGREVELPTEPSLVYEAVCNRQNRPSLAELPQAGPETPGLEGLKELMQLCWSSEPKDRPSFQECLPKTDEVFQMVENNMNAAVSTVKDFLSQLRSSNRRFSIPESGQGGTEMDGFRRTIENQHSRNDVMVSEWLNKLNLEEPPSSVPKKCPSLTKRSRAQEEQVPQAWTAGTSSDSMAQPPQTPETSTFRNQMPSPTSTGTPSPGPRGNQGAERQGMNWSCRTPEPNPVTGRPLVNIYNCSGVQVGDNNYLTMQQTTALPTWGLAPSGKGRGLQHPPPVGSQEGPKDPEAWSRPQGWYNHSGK

Consider `CN1C(=S)[C@H](NC(=O)c2n[nH]c(Cc3ccccc3)n2)COc2cccnc21`, for which the CC50 in series [1] is over 50 µM. Moreover, the pEC50 with HT-29 [2] is 7.73.
For `Cc1ccc2c(n1)OC[C@H](NC(=O)c1n[nH]c(Cc3ccccc3)n1)C(=S)N2C`, in that order: over 50 µM and 6.91.
In the case of `CN1C(=S)[C@@H](NC(=O)c2n[nH]c(Cc3ccccc3)n2)COc2ncccc21`, the cytotoxic concentration (CC50) in [1] was over 50 µM. In addition, the pEC50 in the series with HT-29 [2] was under 5.00.
For `O=C(N[C@H]1COc2ccccc2NC1=S)c1n[nH]c(Cc2ccccc2)n1`, the CC50 in series [1] was over 50 µM. Further, the negative-log EC50 (pEC50) with HT-29 [2] is 6.13.
The corresponding values for `CN1C(=S)[C@H](NC(=O)c2n[nH]c(Cc3ccccc3)n2)COc2ncccc21` are over 50 µM and under 5.00.
The corresponding values for `CN1C(=O)[C@@H](NC(=O)c2nnc(Cc3ccccc3)[nH]2)COc2ccccc21` [GSK2982772] are over 50 µM and 8.44.
With `Cc1cnc2c(c1)N(C)C(=S)[C@@H](NC(=O)c1n[nH]c(Cc3ccccc3)n1)CO2`, in series [1], the CC50 is over 50 µM. The pEC50 in the series on HT-29 [2] was 6.84.
As for `CCN1C(=S)[C@H](NC(=O)c2n[nH]c(Cc3ccccc3)n2)COc2ccccc21`, the CC50 in [1] is over 50 µM. Besides, the pEC50 with HT-29 [2] was 5.18.
The corresponding values for `[2H]C([2H])([2H])N1C(=S)[C@@H](NC(=O)c2n[nH]c(Cc3ccccc3)n2)COc2ccccc21` are over 50 µM and 8.13.
With `CCN1C(=S)[C@@H](NC(=O)c2n[nH]c(Cc3ccccc3)n2)COc2ccccc21`, the CC50 in series [1] was over 50 µM. In the series with HT-29 [2], the pEC50 is 5.82.
As to `[2H]C([2H])([2H])N1C(=S)[C@H](NC(=O)c2n[nH]c(Cc3ccccc3)n2)COc2ccccc21`, the 50% cytotoxic concentration (CC50) in series [1] is over 50 µM. Also, the pEC50 in the series with HT-29 [2] is 7.12.
`CN1C(=S)[C@@H](NC(=O)c2n[nH]c(Cc3ccccc3)n2)COc2cccnc21`: the CC50 in series [1] is over 50 µM. The pEC50 in the series on HT-29 [2] is 7.86.
Take `CN1C(=S)[C@H](NC(=O)c2n[nH]c(Cc3ccccc3)n2)COc2ccccc21`: the inhibition entry in series [3], in series [5], in [6], in [9] and in series [11] was “Active” throughout. Moreover, the inhibition result in series [4], in series [7] and in series [10] was “Dose-Dependent Effect” throughout. For the same molecule, the 50% cytotoxic concentration (CC50) in series [1] is over 50 µM. For the same molecule, the pEC50 in the series with HT-29 [2] was 7.65. Further, the Activity entry in the series with HT-29 [8] is “Dose-Dependent Effect”.
`O=C(N[C@@H]1COc2ccccc2NC1=S)c1n[nH]c(Cc2ccccc2)n1`: the 50% cytotoxic concentration (CC50) in [1] was over 50 µM. Also, the pEC50 in the series on HT-29 [2] is 5.05.
`CN1C(=S)[C@@H](NC(=O)c2n[nH]c(Cc3ccccc3)n2)COc2ccccc21`: the inhibition entry in [3], in series [5], in [6], in series [9] and in series [11] was “Active” throughout. For the same molecule, the inhibition entry in series [4], in series [7] and in series [10] was “Dose-Dependent Effect” in each case. In addition, the CC50 in [1] is over 50 µM. Further, in the series with HT-29 [2], the negative logarithm of the EC50 (pEC50) was 8.55. The Activity entry in the series with HT-29 [8] is “Dose-Dependent Effect”.
For the molecule `Cc1ccc2c(n1)OC[C@H](NC(=O)c1n[nH]c(Cc3ccccc3)n1)C(=O)N2C`, the half-maximal cytotoxic concentration (CC50) in series [1] is over 50 µM. For the same molecule, the pEC50 in the series on HT-29 [2] is 6.44.
The corresponding values for `Cc1cnc2c(c1)N(C)C(=O)[C@@H](NC(=O)c1n[nH]c(Cc3ccccc3)n1)CO2` are over 50 µM and 6.61.
The corresponding values for `CN1C(=O)[C@@H](NC(=O)c2nnc(Cc3ccccc3)[nH]2)COc2cccnc21` [ECLITASERTIB] are over 50 µM and 7.81.
For `Cc1ccc2c(n1)OC[C@@H](NC(=O)c1n[nH]c(Cc3ccccc3)n1)C(=O)N2C`, in that order: over 50 µM and 5.19.
In the case of `Cc1ccc2c(n1)OC[C@@H](NC(=O)c1n[nH]c(Cc3ccccc3)n1)C(=S)N2C`, the CC50 in [1] was over 50 µM. For the same molecule, the negative-log EC50 (pEC50) in the series with HT-29 [2] was 5.70.
For `Cc1cnc2c(c1)N(C)C(=S)[C@H](NC(=O)c1n[nH]c(Cc3ccccc3)n1)CO2`, in that order: over 50 µM and 5.47.
For `CN1C(=O)[C@H](NC(=O)c2nnc(Cc3ccccc3)[nH]2)COc2ccccc21`, in that order: over 50 µM and 6.55.
`Cc1cnc2c(c1)N(C)C(=O)[C@H](NC(=O)c1n[nH]c(Cc3ccccc3)n1)CO2`: the CC50 in series [1] is over 50 µM. In the series with HT-29 [2], the pEC50 was under 5.00.
As for `CN1C(=O)[C@H](NC(=O)c2n[nH]c(Cc3ccccc3)n2)COc2cccnc21`, the CC50 in series [1] is over 50 µM. Also, in the series on HT-29 [2], the pEC50 is 6.09.
For `CN1C(=O)[C@@H](NC(=O)c2n[nH]c(Cc3ccccc3)n2)COc2ncccc21`, the CC50 in [1] was over 50 µM. In the series on HT-29 [2], the pEC50 is under 5.00.
The corresponding values for `CN1C(=O)[C@H](NC(=O)c2n[nH]c(Cc3ccccc3)n2)COc2ncccc21` are over 50 µM and under 5.00.
